≈ marks a conversion by molar mass, not a printed value. Where “and” joins values, the source holds several entries; their conditions need not be identical. Equal values may be shown once. Read-outs that look alike come from different tables or passages of the source.
How the values were obtained:
P388 leukemia cells = experiment: Cytotoxicity on tissue culture: growth inhibition of cultured P388 leukemia cells; assay type: cell-based
Source text: (1) Cytotoxicity (on tissue culture)
The barminomycin compounds of the present invention were capable of inhibiting the growth of cultured P388 leukemia cells in very low concentrations. […] For further detail, see the following table.

L1210 leukemia cells = experiment: Anti-tumor activity: L1210 leukemia transplanted intraperitoneally into CDF1 mice, life prolongation; assay type: in vivo; conditions: for percentage life prolongation (T/C%): saline control = 100; for intoxication: L1210-bearing CDF1 mice
Protocol: L1210 leukemia cells (1 x 10^5 per animal) were transplanted intraperitoneally into CDF1 mice. Immediately after the transplantation, 0.25 ml of a selected test compound in solution was administered intraperitoneally in accordance with the schedule shown below. The anti-tumor activities of the test compounds in terms of percentage life prolongation (T/C%) are listed in the same table, with the number of days of survival of control mice to which physiological saline had been administered being taken as 100 (day 0 means the day of L1210 transplantation).

E. coli K-12 = experiment: Antimicrobial activity, MIC by agar dilution method; assay type: cell-based; conditions: E. coli K-12, agar dilution method
Protocol: (§1) The antimicrobial activities of barminomycin I and Ir of the present invention, and that of carminomycin III were determined by the agar dilution method.

[1] = system: Mycobacterium smegmatis 607; experiment: as above; assay type: cell-based; conditions: Mycobacterium smegmatis 607, agar dilution method
Protocol: as §1

Serratia marcescens = experiment: as above; assay type: cell-based
Protocol: as §1

E. coli NIHJ = experiment: as above; assay type: cell-based
Protocol: as §1

S. aureus MS9610 = experiment: as above; assay type: cell-based
Protocol: as §1

[2] = system: Staphylococcus aureus FAD 209P; experiment: as above; assay type: cell-based
Protocol: as §1

[3] = system: Klebsiella p eumoniae PCI 602; experiment: as above; assay type: cell-based; conditions: Klebsiella p eumoniae PCI 602, agar dilution method
Protocol: as §1

S. aureus Smith = experiment: as above; assay type: cell-based
Protocol: as §1

[4] = system: Bacillus subtilis PCI 219; experiment: as above; assay type: cell-based; conditions: Bacillus subtilis PCI 219, agar dilution method
Protocol: as §1

S. aureus MS8710 = experiment: as above; assay type: cell-based
Protocol: as §1

Proteus vulgaris OX19 = experiment: as above; assay type: cell-based
Protocol: as §1

E. coli BE1186 = experiment: as above; assay type: cell-based
Protocol: as §1

E. coli BE1121 = experiment: as above; assay type: cell-based
Protocol: as §1

[5] = system: Pseudomonas aeruginosa A3; experiment: as above; assay type: cell-based
Protocol: as §1

[6] = system: Micrococcus Lysodeikticus IFO 3333; experiment: as above; assay type: cell-based; conditions: Micrococcus Lysodeikticus IFO 3333, agar dilution method
Protocol: as §1

[7] = 0.0078 µg/mouse/day intraperitoneally, 0 - 10 days (daily)
[8] = 0.0157 µg/mouse/day intraperitoneally, 0 - 10 days (daily)
[9] = 0.0625 µg/mouse/day intraperitoneally, 0 - 10 days (daily)
[10] = 0.125 µg/mouse/day intraperitoneally, 0 - 10 days (daily)
[11] = 0.25 µg/mouse/day intraperitoneally, 0 - 10 days (daily)
[12] = 1.25 µg/mouse/day intraperitoneally, 0 - 9 days (daily)
[13] = 2.5 µg/mouse/day intraperitoneally, 0 - 9 days (daily)
[14] = 5 µg/mouse/day intraperitoneally, 0 - 9 days (daily)
[15] = 10 µg/mouse/day intraperitoneally, 0 - 9 days (daily)
[16] = 20 µg/mouse/day intraperitoneally, 0 - 9 days (daily)
[17] = 40 µg/mouse/day intraperitoneally, 0 - 9 days (daily)

Molecule | IC50 (P388 leukemia cells) | MIC (E. coli K-12) [µg/mL] | MIC [1] [µg/mL] | MIC (Serratia marcescens) [µg/mL] | MIC (E. coli NIHJ) [µg/mL] | MIC (S. aureus MS9610) [µg/mL] | MIC [2] [µg/mL] | MIC [3] [µg/mL] | MIC (S. aureus Smith) [µg/mL] | MIC [4] [µg/mL] | MIC (S. aureus MS8710) [µg/mL] | MIC (Proteus vulgaris OX19) [µg/mL] | MIC (E. coli BE1121) [µg/mL] | MIC [5] [µg/mL] | MIC [6] [µg/mL] | other results
CC(=O)C1(O)Cc2c(O)c3c(c(O)c2C(OC2CC4N=CC(C)OC(CC(C)O)OC4C(C)O2)C1)C(=O)c1c(O)cccc1C3=O (single isomer, unassigned) [Barminomycin II] | ~ 0.00002 µg/mℓ |  |  |  |  |  |  |  |  |  |  |  |  |  |  | percentage life prolongation (T/C%) (L1210 leukemia cells; [7]): >500%, >500%; percentage life prolongation (T/C%) (L1210 leukemia cells; [8]): 120%; intoxication (L1210 leukemia cells; [9]): tendency of intoxication; intoxication (L1210 leukemia cells; [10]): tendency of intoxication; percentage life prolongation (T/C%) (L1210 leukemia cells; [10]): 173%; intoxication (L1210 leukemia cells; [11]): Intoxicated to death at 4 days, and 5 days; percentage life prolongation (T/C%) (L1210 leukemia cells; 0.313 µg/mouse/day intraperitoneally, 0 - 10 days (daily)): 140%
CC(=O)C1(O)Cc2c(O)c3c(c(O)c2C(OC2CC4NCC(C)OC(CC(C)O)OC4C(C)O2)C1)C(=O)c1c(O)cccc1C3=O (single isomer, unassigned) [Barminomycin IIr] | 0.002 µg/mL (≈ 0.00312 µM) |  |  |  |  |  |  |  |  |  |  |  |  |  |  | percentage life prolongation (T/C%) (L1210 leukemia cells; [12]): 123%; percentage life prolongation (T/C%) (L1210 leukemia cells; [13]): 129%; percentage life prolongation (T/C%) (L1210 leukemia cells; [14]): 123%; percentage life prolongation (T/C%) (L1210 leukemia cells; [15]): 86%; intoxication (L1210 leukemia cells; [16]): Intoxication; percentage life prolongation (T/C%) (L1210 leukemia cells; [16]): 43%; intoxication (L1210 leukemia cells; [17]): Intoxication; percentage life prolongation (T/C%) (L1210 leukemia cells; [17]): 37%
CC(=O)C1(O)Cc2c(O)c3c(c(O)c2C(OC2CC4NCC(C)OC(CC(C)O)OC4C(C)O2)C1)C(=O)c1c(O)cccc1C3=O (single isomer, unassigned) [Barminomycin Ir] | 0.0015 µg/mL (≈ 0.00234 µM) | 6.25 (≈ 9.74 µM) | 6.25 (≈ 9.74 µM) | 3.12 (≈ 4.86 µM) | 50 (≈ 77.9 µM) | 1.56 (≈ 2.43 µM) | 0.78 (≈ 1.22 µM) | 6.25 (≈ 9.74 µM) | 0.78 (≈ 1.22 µM) | 0.39 (≈ 0.608 µM) | 1.56 (≈ 2.43 µM) | >50 | 0.2 (≈ 0.312 µM) | 12.5 (≈ 19.5 µM) | 0.78 (≈ 1.22 µM) | percentage life prolongation (T/C%) (L1210 leukemia cells; [12]): 97%; percentage life prolongation (T/C%) (L1210 leukemia cells; [13]): 129%; percentage life prolongation (T/C%) (L1210 leukemia cells; [14]): 141%; intoxication (L1210 leukemia cells; [15]): Tendency of intoxication; percentage life prolongation (T/C%) (L1210 leukemia cells; [15]): 49%; intoxication (L1210 leukemia cells; [16]): Intoxication; percentage life prolongation (T/C%) (L1210 leukemia cells; [16]): 37%; intoxication (L1210 leukemia cells; [17]): Intoxication; percentage life prolongation (T/C%) (L1210 leukemia cells; [17]): 25%; MIC (E. coli BE1186): 0.2 µg/mL (≈ 0.312 µM)
COc1cccc2c1C(=O)c1c(O)c3c(c(O)c1C2=O)C[C@@](O)(C(=O)CO)C[C@@H]3O[C@H]1C[C@H](N)[C@H](O)[C@H](C)O1 [Adriamycin, adriamycin, reference compound] |  |  |  |  |  |  |  |  |  |  |  |  |  |  |  | IC50 (P388 leukemia cells; Mus musculus, read-out: IC50): 0.013 µg/mL (≈ 0.0239 µM)
CC(=O)C1(O)Cc2c(O)c3c(c(O)c2C(OC2CC4N=CC(C)OC(CC(C)O)OC4C(C)O2)C1)C(=O)c1c(O)cccc1C3=O (centres unmarked) [Barminomycin I] | ~ 0.00001 µg/mℓ | 0.78 (≈ 1.22 µM) | 0.78 (≈ 1.22 µM) | 0.78 (≈ 1.22 µM) | 3.12 (≈ 4.88 µM) | 0.2 (≈ 0.313 µM) | 0.2 (≈ 0.313 µM) | 0.39 (≈ 0.61 µM) | 0.2 (≈ 0.313 µM) | <0.1 | 0.2 (≈ 0.313 µM) | 3.12 (≈ 4.88 µM) | <0.1 | 1.56 (≈ 2.44 µM) | 0.2 (≈ 0.313 µM) | percentage life prolongation (T/C%) (L1210 leukemia cells; [7]): 160%; percentage life prolongation (T/C%) (L1210 leukemia cells; [8]): 187% and 120%; percentage life prolongation (T/C%) (L1210 leukemia cells; [9]): 213% and 147%; intoxication (L1210 leukemia cells; [10]): tendency of intoxication; percentage life prolongation (T/C%) (L1210 leukemia cells; [10]): 147%; intoxication (L1210 leukemia cells; [11]): Intoxicated to death at 4 days; percentage life prolongation (T/C%) (L1210 leukemia cells; [11]): 120%; MIC (E. coli BE1186): <0.1 µg/mL
CC(=O)[C@]1(O)Cc2c(O)c3c(c(O)c2[C@@H](O[C@H]2C[C@H](N)[C@H](O)[C@H](C)O2)C1)C(=O)c1c(O)cccc1C3=O [Carminomycin I, carminomycin I, reference compound] |  |  |  |  |  |  |  |  |  |  |  |  |  |  |  | IC50 (P388 leukemia cells; Mus musculus, read-out: IC50): 0.002 µg/mL (≈ 0.00389 µM)
CC(=O)C1(O)Cc2c(O)c3c(c(O)c2C(OC2CC(N)C(OC(CC(C)O)OC(C)CO)C(C)O2)C1)C(=O)c1c(O)cccc1C3=O (centres unmarked) [Carminomycin II, carminomycin II, reference compound] | 0.010 µg/mL (≈ 0.0152 µM) |  |  |  |  |  |  |  |  |  |  |  |  |  |  | 
carminomycin III [reference compound] | 0.006 µg/mL | >50 | 6.25 | 25 | >50 | 1.56 | 3.12 | 50 | 3.12 | 1.56 | 1.56 | >50 | 1.56 | >50 | 1.56 | 
